Measurements as given in BindingDB's records for doi:10.1021/acs.jmedchem.9b00568 (University of Central Florida, 2020).

Assay: Induction of LAT1-mediated polyamine efflux in human L3.6PL cells assessed as reduction in cell viability after 48 hrs by MTS assay

CC(C)CCN1CCN([C@@H](CNCc2ccccc2)CC2CCCCC2)C[C@@H]1CC(C)C
IC50: 3.48 µM
